The source made the active and inactive calls.
Assays:
[1] = Luminescence Cell-Based Dose Retest to Confirm Inhibitors of Cancer Stem Cells. [Related pubchem assays (depositor defined):AID2717, AID2721]; format: functional; settings: Homo sapiens
[2] = biological target: T1, Heat shock factor protein 1 (Mus musculus, UniProt P38532); assay: enhancement of HSF1-driven luciferase signal – cell-based, NIH3T3, luminescence, dose retest, confirmation (AID 435004); format: functional;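 further: stress induced by proteasome inhibitor MG132 added 30 min after compound; luciferase reporter driven by HSF1 response element in NIH3T3 cells; actives raise luminescence as potentiators of the MG132 stress response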
T1 sequence (P38532 whole entry): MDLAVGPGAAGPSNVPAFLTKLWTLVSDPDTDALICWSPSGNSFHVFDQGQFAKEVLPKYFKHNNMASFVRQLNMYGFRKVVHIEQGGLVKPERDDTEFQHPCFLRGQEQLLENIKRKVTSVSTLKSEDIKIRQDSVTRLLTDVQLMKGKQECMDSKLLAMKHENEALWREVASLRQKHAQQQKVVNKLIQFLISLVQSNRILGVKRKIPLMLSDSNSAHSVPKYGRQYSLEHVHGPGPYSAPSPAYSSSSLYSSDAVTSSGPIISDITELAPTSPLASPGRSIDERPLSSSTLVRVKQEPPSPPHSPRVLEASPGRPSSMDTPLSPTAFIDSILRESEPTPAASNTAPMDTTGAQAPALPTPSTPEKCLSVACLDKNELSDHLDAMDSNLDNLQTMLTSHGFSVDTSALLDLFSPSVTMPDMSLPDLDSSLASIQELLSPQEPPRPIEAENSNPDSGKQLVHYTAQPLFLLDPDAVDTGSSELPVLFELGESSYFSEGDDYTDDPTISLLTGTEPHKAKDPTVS

[3] = biological target: T2, RNA-binding protein pos-1 (Caenorhabditis elegans, UniProt G5EF15); assay: disruptors of C. elegans POS-1 RNA interaction – biochemical, fluorescence polarization, dose response (AID 1964);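 further: purified POS-1 fused to maltose binding protein made in E. coli; potency of compounds blocking POS-1 binding to fluorescent RNA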
T2 sequence (G5EF15 whole entry): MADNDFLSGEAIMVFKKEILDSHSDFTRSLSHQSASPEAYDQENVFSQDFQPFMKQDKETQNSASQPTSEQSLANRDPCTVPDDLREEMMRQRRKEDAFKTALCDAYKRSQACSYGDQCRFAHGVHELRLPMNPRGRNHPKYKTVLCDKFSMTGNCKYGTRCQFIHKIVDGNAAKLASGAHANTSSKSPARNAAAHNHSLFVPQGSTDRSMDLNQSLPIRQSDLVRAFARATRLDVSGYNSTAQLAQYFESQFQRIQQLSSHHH

[4] = biological target: T3, Zinc finger protein mex-5 (Caenorhabditis elegans, UniProt Q9XUB2); assay: potency of MEX-5 RNA-binding blockers – biochemical, C. elegans, fluorescence polarization, dose response (AID 1960)
T3 sequence (Q9XUB2 whole entry): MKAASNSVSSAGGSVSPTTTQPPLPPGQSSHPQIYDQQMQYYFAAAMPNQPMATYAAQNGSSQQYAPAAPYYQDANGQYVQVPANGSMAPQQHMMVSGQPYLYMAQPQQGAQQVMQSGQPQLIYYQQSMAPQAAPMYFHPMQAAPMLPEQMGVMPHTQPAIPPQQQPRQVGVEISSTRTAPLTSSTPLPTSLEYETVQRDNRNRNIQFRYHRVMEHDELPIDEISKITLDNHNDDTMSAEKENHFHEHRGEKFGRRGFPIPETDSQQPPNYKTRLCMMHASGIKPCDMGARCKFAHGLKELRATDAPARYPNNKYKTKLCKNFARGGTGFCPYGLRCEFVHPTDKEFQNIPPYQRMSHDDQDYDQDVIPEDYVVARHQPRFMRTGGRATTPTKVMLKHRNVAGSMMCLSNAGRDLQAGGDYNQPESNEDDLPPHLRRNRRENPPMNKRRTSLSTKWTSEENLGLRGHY

Cytochrome P450 3A4 = Cytochrome P450 3A4 (Homo sapiens, UniProt P08684);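 further: CYP3A4 tested as one member of a cytochrome P450 panel screen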
Chain of Cytochrome P450 3A4 (P08684 whole entry): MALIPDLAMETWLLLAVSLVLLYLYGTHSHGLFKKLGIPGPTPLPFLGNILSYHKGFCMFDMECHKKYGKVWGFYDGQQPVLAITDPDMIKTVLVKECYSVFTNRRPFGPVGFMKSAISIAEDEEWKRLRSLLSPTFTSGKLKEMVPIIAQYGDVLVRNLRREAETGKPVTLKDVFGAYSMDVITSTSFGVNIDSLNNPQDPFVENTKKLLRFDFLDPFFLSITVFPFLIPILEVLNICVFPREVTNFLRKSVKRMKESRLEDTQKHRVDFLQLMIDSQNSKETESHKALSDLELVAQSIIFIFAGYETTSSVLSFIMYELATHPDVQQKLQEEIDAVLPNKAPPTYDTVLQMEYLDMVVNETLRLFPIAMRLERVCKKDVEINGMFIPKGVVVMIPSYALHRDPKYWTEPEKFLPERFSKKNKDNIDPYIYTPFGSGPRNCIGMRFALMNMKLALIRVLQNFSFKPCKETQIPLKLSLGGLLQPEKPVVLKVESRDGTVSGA

Cytochrome P450 2C9 = Cytochrome P450 2C9 (Homo sapiens, UniProt P11712)
Chain of Cytochrome P450 2C9 (P11712 whole entry): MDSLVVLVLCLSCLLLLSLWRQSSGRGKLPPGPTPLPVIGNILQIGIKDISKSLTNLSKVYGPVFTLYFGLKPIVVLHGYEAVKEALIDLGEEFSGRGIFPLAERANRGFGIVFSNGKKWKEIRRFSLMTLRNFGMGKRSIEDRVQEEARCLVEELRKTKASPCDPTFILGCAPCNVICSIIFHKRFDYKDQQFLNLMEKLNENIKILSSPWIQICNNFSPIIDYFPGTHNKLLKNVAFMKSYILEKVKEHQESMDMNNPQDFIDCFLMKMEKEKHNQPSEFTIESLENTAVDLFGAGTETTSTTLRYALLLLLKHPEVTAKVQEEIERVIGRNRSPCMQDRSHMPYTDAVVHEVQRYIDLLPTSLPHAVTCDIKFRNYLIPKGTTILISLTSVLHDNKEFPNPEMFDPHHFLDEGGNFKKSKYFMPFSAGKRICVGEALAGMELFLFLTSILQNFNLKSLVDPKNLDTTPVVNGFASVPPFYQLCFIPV

[5] = Luminescence Cell-Based Dose Confirmation HTS to Identify Activators of 5'UTR Stem-Loop Driven Alpha-Synuclein mRNA Translation in H4 Neuroglioblastoma Cells. [Related pubchem assays: 1829 (Project Summary), 1814 (Primary HTS)]; format: functional
[6] = Luminescence Cell-Based Dose Response HTS to Identify Activators of Luciferase Translation or Activity in H4 […] Cells. [Related pubchem assays: 1829 (Project Summary), 1814 (Primary HTS)]; format: functional
H4 = assay: Luminescence Cell-Based Dose Response HTS to Identify Activators of 5'UTR Stem-Loop Driven Prion Protein mRNA Translation in H4 Neuroglioblastoma Cells. [Related pubchem assays: 1829 (Project Summary), 1814 (Primary HTS)]; format: functional; settings: Homo sapiens
Cytochrome P450 2C19 = Cytochrome P450 2C19 (Homo sapiens, UniProt P33261); assay: Cytochrome panel assay with activity outcomes. Panel member name: p450-cyp2c19 Compounds with AC50 equal or less than 10 uM are considered active; format: functional; settings: read-out: AC50
Chain of Cytochrome P450 2C19 (P33261 whole entry): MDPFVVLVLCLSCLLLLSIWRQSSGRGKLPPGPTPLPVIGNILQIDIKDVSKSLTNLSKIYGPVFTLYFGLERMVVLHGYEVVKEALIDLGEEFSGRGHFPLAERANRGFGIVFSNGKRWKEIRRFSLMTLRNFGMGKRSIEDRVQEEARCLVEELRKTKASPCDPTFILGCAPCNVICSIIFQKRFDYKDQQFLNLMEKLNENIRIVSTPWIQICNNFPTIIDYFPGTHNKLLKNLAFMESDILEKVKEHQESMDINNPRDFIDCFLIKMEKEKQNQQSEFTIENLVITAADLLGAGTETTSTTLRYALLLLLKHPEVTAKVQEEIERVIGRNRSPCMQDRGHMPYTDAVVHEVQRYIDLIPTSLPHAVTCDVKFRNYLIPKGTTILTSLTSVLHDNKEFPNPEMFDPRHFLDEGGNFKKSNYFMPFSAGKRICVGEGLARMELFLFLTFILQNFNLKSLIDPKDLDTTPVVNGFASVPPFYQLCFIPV

Cytochrome P450 1A2 = biological target: T4, Cytochrome P450 1A2 (Homo sapiens, UniProt P05177);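 further: PubChem cytochrome P450 panel assay, CYP1A2 panel member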
T4 sequence (P05177 whole entry): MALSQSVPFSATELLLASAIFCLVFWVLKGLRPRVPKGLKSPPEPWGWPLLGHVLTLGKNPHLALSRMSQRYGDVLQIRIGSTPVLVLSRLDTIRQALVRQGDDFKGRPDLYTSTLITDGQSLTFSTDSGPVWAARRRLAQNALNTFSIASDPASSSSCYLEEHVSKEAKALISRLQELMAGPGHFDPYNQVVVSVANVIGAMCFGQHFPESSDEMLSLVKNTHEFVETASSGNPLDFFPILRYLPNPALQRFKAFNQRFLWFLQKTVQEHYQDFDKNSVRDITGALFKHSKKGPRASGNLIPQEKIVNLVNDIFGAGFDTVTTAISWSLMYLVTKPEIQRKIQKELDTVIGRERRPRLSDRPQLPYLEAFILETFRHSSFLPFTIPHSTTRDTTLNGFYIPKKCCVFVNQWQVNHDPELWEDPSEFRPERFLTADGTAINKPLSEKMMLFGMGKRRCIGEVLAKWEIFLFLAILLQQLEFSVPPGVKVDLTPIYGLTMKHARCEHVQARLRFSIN

[7] = reduction of Shn3 3'UTR-driven luciferase in osteoblasts – cell-based, Clone20 osteoblasts, firefly luciferase, cherry-picked, dose response (AID 624132); format: functional;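 further: firefly luciferase luminescence from reporter carrying the Shn3 3'UTR in osteoblasts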
[8] = non-specific 3'UTR reporter inhibition in Clone20-Shn3RL – cell-based, Renilla luciferase, cherry-picked, counter-screen for Shn3 inhibitor project, dose response (AID 624133); format: functional

O=C(/C=C/c1ccc2c(c1)OCO2)NCCSCc1ccc(Cl)cc1
AC50 [1]: 0.922 µM (active)

Cc1ccn(CC(=O)N2CCCC(N3CCN(c4ccc(F)cc4)CC3)C2)n1 (stereo unspecified)
EC50 [2]: > 260 µM (inactive)

C/C(NCCN1CCCCC1)=C1/C(=O)NC(=O)N(c2ccc(Cl)cc2)C1=O
EC50 [3]: > 300 µM (not active)
EC50 [4]: > 300 µM (not active)

Nc1nnnn1/N=C\c1ccc(Cl)c([N+](=O)[O-])c1
EC50 [2]: > 260 µM (inactive)

Cc1noc(NS(=O)(=O)c2cccc3c(N(C)C)cccc23)c1C [BMS-182874]
AC50 (Cytochrome P450 3A4): 20 µM (inconclusive)

CC(=O)Nc1ccc(NC(=O)c2ccc(NS(=O)(=O)c3cc(C(C)(C)C)cc(C)c3C)cc2)cc1
EC50 [2]: 12.5 µM (active)

COc1ccc(-c2csc(NC(=O)Cn3nc(C)cc3C)n2)cc1
AC50 (Cytochrome P450 3A4): 15.8 µM (inconclusive)
AC50 (Cytochrome P450 2C9): 0.794 µM (inconclusive)

COc1ccc(Cn2c3ccc(OC)cc3c3nc4ccccc4nc32)cc1
AC50 [1]: 13 µM (active)

CCNc1ncc2nc(-c3ccc(OC)cc3)c(=O)n(-c3ccc(OC)cc3)c2n1
AC50 (Cytochrome P450 3A4): 12.6 µM (inconclusive)

Cc1ccc(NS(=O)(=O)c2sc3ccc(Cl)cc3c2C)cc1
AC50 [1]: 3.78 µM (active)

CC(=O)c1ccc2c(c1)C1C=CCC1C(c1cc3c(cc1Br)OCO3)N2 (stereo unspecified)
EC50 [3]: > 300 µM (not active)
EC50 [4]: > 300 µM (not active)

CCCCN1CCCC[C@H]1C(=O)Nc1c(C)cccc1C [LEVOBUPIVACAINE]
AC50 (Cytochrome P450 3A4): 10 µM (inconclusive)

CCOC(=O)N1CCN(/C=C(\C#N)c2nc3ccccc3s2)CC1
EC50 [3]: > 300 µM (not active)
EC50 [5]: 38 µM (active)
EC50 [6]: 14.7 µM (active)
EC50 (H4): 37.5 µM (active)
EC50 [4]: > 300 µM (not active)

Cc1c(/C=N/NC(=O)c2cc(O)nc(O)n2)c2ccccn2c1C(=O)c1ccccc1
EC50 [3]: > 300 µM (not active)
EC50 [4]: > 300 µM (inconclusive)

COc1ccc(N/C=C2/C(=O)N(c3cccc(C)n3)C(=O)c3ccccc32)cc1
EC50 [3]: > 300 µM (not active)
EC50 [4]: > 300 µM (not active)

O=[N+]([O-])c1ccc(/N=C/C=C(\O)c2ccc(Br)cc2)cc1
EC50 [3]: > 300 µM (not active)
EC50 [4]: > 300 µM (not active)

O=c1c(-c2cccc(F)c2)nc2cncnc2n1C1CC1
AC50 (Cytochrome P450 3A4): 12.6 µM (inconclusive)

COCCNC(=O)CSc1nc2cc(OC)c(OC)cc2c(=O)n1Cc1ccco1
AC50 (Cytochrome P450 2C19): 20 µM (inconclusive)
AC50 (Cytochrome P450 3A4): 3.55 µM (inconclusive)

CS(=O)(=O)N1CCC[C@@]2(CCN(C(=O)Nc3cccc(F)c3)C2)C1
AC50 (Cytochrome P450 3A4): 12.6 µM (inconclusive)

Cn1c(S)nnc1CNS(=O)(=O)c1ccc(Cl)cc1
AC50 (Cytochrome P450 3A4): 15.8 µM (inconclusive)

N#CCCn1c(=O)c(-c2ccc(F)cc2)nc2cnc(N3CCNCC3)nc21
AC50 (Cytochrome P450 3A4): 25.1 µM (inconclusive)

Cc1cc(C)cc(N2C(=O)/C(=C\c3ccc(N4CCN(C)CC4)o3)C(=O)NC2=S)c1
EC50 [3]: > 300 µM (inconclusive)
EC50 [4]: > 300 µM (inconclusive)

COCC1CCN(C(=O)CC2C(=O)NCCN2Cc2cccc(Oc3ccccc3)c2)CC1 (stereo unspecified)
EC50 [3]: > 300 µM (not active)
EC50 [4]: > 300 µM (not active)

CCN(CC(=O)Nc1ccc(NC(C)=O)cc1)C(=O)c1ccccc1CCc1ccccc1
AC50 [1]: > 195 µM (inactive)

CC(C)c1ccc(N2C(=O)CC(Sc3nc4ccccc4o3)C2=O)cc1 (stereo unspecified)
AC50 (Cytochrome P450 1A2): 5.01 µM (inconclusive)
AC50 (Cytochrome P450 3A4): 39.8 µM (inconclusive)

CC(C)NCC(O)COCc1ccc(Cl)cc1 (stereo unspecified)
EC50 [2]: > 260 µM (inactive)

COc1ccc(O[C@H]2C=C[C@@H](c3ccccc3)O[C@H]2CO/N=C(/C)CCC(=O)OC[C@@H]2O[C@H](C#Cc3ccccc3)C=C[C@@H]2Oc2ccc(C)cc2)cc1
AC50 (Cytochrome P450 2C19): 0.126 µM (inconclusive)
AC50 (Cytochrome P450 3A4): 3.16 µM (inconclusive)

Cc1onc(-c2ccccc2)c1NC(=O)N(CCC#N)Cc1ccccc1
EC50 [2]: > 260 µM (inactive)

O=c1c(-c2cccs2)nc2cnc(N3CCOCC3)nc2n1Cc1ccc(F)cc1
AC50 (Cytochrome P450 1A2): 20 µM (inconclusive)
AC50 (Cytochrome P450 3A4): 2.51 µM (inconclusive)

O=C(CCC1CCCC1)/N=C1\SC2CS(=O)(=O)CC2N1c1ccccc1F (stereo unspecified)
EC50 [2]: > 260 µM (inactive)

CN1C(=O)c2cccc(NCCCCCCN3C(=O)c4ccccc4C3=O)c2C1=O
AC50 [7]: 5.57 µM (active)
AC50 [8]: 17.2 µM (active)

COC(=O)CCCC1=CC2=CC(=O)C(C)(OC(=O)c3cnc4ccccc4n3)C(=O)C2=CO1 (stereo unspecified)
EC50 [3]: 12.7 µM (active)
EC50 [4]: 12.3 µM (active)

COc1ccc(-c2sc3cc4c(cc3c2C#CC2(O)CCCCC2)OCO4)cc1
AC50 [1]: 4.07 µM (active)

COC(=O)c1ccc(C2Nc3ccc(/C(C)=N/NC(=O)C(OC)c4ccccc4)cc3C3C=CCC32)cc1 (stereo unspecified)
EC50 [3]: > 300 µM (not active)
EC50 [4]: 35.2 µM (active)

CCN(CC)c1ccc(N/C=C2/C(=O)NC(=O)N(c3ccccc3)C2=O)cc1
EC50 [3]: > 300 µM (not active)
EC50 [4]: > 300 µM (not active)

CCOc1cccc2cc(C(N)=O)/c(=N/Cc3ccccc3)oc12
AC50 (Cytochrome P450 3A4): 14.1 µM (inconclusive)

O=C(CN1CCOCC1)N(c1ccccc1)c1ccc2ccccc2c1
EC50 [2]: > 260 µM (inactive)

CC(c1ccccc1)N1CC(C(=O)N2CCN(c3ccc(F)cc3)CC2)CC1=O (stereo unspecified)
EC50 [2]: > 260 µM (inactive)

N#Cc1ccc(-c2ccc(F)cc2)nc1Sc1ccccc1
AC50 (Cytochrome P450 2C19): 5.01 µM (inconclusive)
AC50 (Cytochrome P450 3A4): 12.6 µM (inconclusive)
AC50 (Cytochrome P450 2C9): 5.01 µM (inconclusive)

CC(NC(=O)c1ccc(Cl)cc1)c1nnc(SCc2ccc([N+](=O)[O-])cc2)n1C (stereo unspecified)
AC50 (Cytochrome P450 2C19): 39.8 µM (inconclusive)
AC50 (Cytochrome P450 1A2): 15.8 µM (inconclusive)
AC50 (Cytochrome P450 3A4): 8.91 µM (inconclusive)
AC50 (Cytochrome P450 2C9): 28.2 µM (inconclusive)

COc1ccccc1NC(=O)Nc1nc(CC(=O)N2CCN(c3ccccc3)CC2)cs1
EC50 [2]: > 260 µM (inactive)

Source: ChEMBL document CHEMBL1201862, “PubChem BioAssay data set” (2004)
